Measured values taken from ChEMBL document CHEMBL5143508, “Design, synthesis and biological evaluation of novel o-aminobenzamide derivatives as potential anti-gastric cancer agents in vitro and in vivo” (Eur J Med Chem, 2022).
pIC50: −log10 of the molar value. Where “and” joins values, the source holds several entries; their conditions need not be identical. Identical values can stand only once. Calls of active or inactive are those of the source. The rule behind the calls is not given here.

Columns and labels:
AGS = test: cells; format: functional, cell-based; conditions: Homo sapiens, 72 h
Description: Cytotoxicity against human AGS cells assessed as inhibition of cell growth incubated for 72 hrs by MTT assay

HGC-27 [1] = test: Induction of apoptosis in human HGC-27 cells assessed as viable cells at 0.1 uM incubated for 48 hrs by annexin V FITC/propidium iodide staining based flow cytometry (reference value: 93.0 %); format: functional; conditions: read-out: Activity
HGC-27 [2] = test: Induction of apoptosis in human HGC-27 cells assessed as early apoptotic cells at 0.4 uM incubated for 48 hrs by annexin V FITC/propidium iodide staining based flow cytometry (reference value: 0.66 %); format: functional
HGC-27 [3] = test: Induction of apoptosis in human HGC-27 cells assessed as late apoptotic cells at 0.4 uM incubated for 48 hrs by annexin V FITC/propidium iodide staining based flow cytometry (reference value: 5.14 %); format: functional
HGC-27 [4] = test: Induction of apoptosis in human HGC-27 cells assessed as early apoptotic cells at 1.6 uM incubated for 48 hrs by annexin V FITC/propidium iodide staining based flow cytometry (reference value: 0.66 %); format: functional
HGC-27 [5] = test: Induction of apoptosis in human HGC-27 cells assessed as necrotic cells at 1.6 uM incubated for 48 hrs by annexin V FITC/propidium iodide staining based flow cytometry (reference value: 1.24 %); format: functional
MGC-803 [6] = test: Induction of apoptosis in human MGC-803 cells assessed as viable cells at 20 uM incubated for 48 hrs by annexin V FITC/propidium iodide staining based flow cytometry (reference value: 94.4 %); format: functional; conditions: read-out: Activity
MGC-803 [7] = test: Induction of apoptosis in human MGC-803 cells assessed as early apoptotic cells at 20 uM incubated for 48 hrs by annexin V FITC/propidium iodide staining based flow cytometry (reference value: 0.42 %); format: functional
MGC-803 [8] = test: Induction of apoptosis in human MGC-803 cells assessed as necrotic cells at 20 uM incubated for 48 hrs by annexin V FITC/propidium iodide staining based flow cytometry (reference value: 1.06 %); format: functional
HGC-27 [9] = test: Induction of cell cycle arrest in human HGC-27 cells assessed as reduction in accumulation of cells at G0/G1 phase at 0.1 to 1.6 uM incubated for 24 hrs by PI staining based flow cytometry analysis; format: functional; conditions: dose 0.1-1.6 µM
HGC-27 [10] = test: Induction of cell cycle arrest in human HGC-27 cells assessed as reduction in accumulation of cells at S phase at 0.1 to 1.6 uM incubated for 24 hrs by PI staining based flow cytometry analysis; format: functional; conditions: dose 0.1-1.6 µM
[11] = Toxicity in BALB/c mouse xenografted with human HGC-27 cells assessed as body weight loss at 75 to 150 mg/kg, po bid administered for 19 days and measured every other day; format: organism-based; conditions: in vivo, 456 h, dose 75-150 mg/kg, time 19 day
[12] = Toxicity in BALB/c mouse xenografted with human HGC-27 cells assessed as lymphocyte level at 150 mg/kg, po bid for 19 days; format: organism-based; conditions: in vivo, 456 h, time 19 day
[13] = Toxicity in BALB/c mouse xenografted with human HGC-27 cells assessed as monocyte level at 150 mg/kg, po bid for 19 days; format: organism-based; conditions: in vivo, 456 h, time 19 day
[14] = Toxicity in BALB/c mouse xenografted with human HGC-27 cells assessed as granulocyte level at 150 mg/kg, po bid for 19 days; format: organism-based; conditions: in vivo, 456 h, time 19 day
[15] = Toxicity in BALB/c mouse xenografted with human HGC-27 cells assessed as mean corpuscular volume at 150 mg/kg, po bid for 19 days; format: organism-based; conditions: in vivo, 456 h, time 19 day
[16] = Toxicity in BALB/c mouse xenografted with human HGC-27 cells assessed as lymphocyte level at 75 mg/kg, po bid for 19 days; format: organism-based; conditions: in vivo, 456 h, time 19 day
[17] = Toxicity in BALB/c mouse xenografted with human HGC-27 cells assessed as RBC level at 75 mg/kg, po bid for 19 days; format: organism-based, Erythrocyte; conditions: in vivo, 456 h, time 19 day
HGC-27 [18] = test: In vivo induction of apoptosis in human HGC-27 cells xenografted in BALB/c mouse assessed as increase in cleaved caspase-3 expression at 75 to 150 mg/kg , po bid administered for 19 days and measured by immunohistochemical analysis; format: functional, organism-based; conditions: dose 75-150 mg/kg, time 19.0 day
HGC-27 [19] = test: In vivo induction of cell cycle arrest in human HGC-27 cells xenografted in BALB/c mouse assessed as decrease in CDK2 expression at 75 to 150 mg/kg, po bid administered for 19 days and measured by immunohistochemical analysis; format: functional, organism-based; conditions: dose 75-150 mg/kg, time 19.0 day
in vitro [20] = conditions: human, GES1 cells
Description: Cytotoxicity against human GES1 cells assessed as inhibition of cell growth incubated for 72 hrs by MTT assay

in vitro [21] = conditions: human, WI-38 cells
Description: Cytotoxicity against human WI-38 cells assessed as inhibition of cell growth incubated for 72 hrs by MTT assay

HGC-27 [22] = test: Induction of apoptosis in human HGC-27 cells assessed as early apoptotic cells at 0.5 uM incubated for 48 hrs by annexin V FITC/propidium iodide staining based flow cytometry (reference value: 0.66 %); format: functional
HGC-27 [23] = test: Induction of apoptosis in human HGC-27 cells assessed as late apoptotic cells at 0.5 uM incubated for 48 hrs by annexin V FITC/propidium iodide staining based flow cytometry (reference value: 5.14 %); format: functional
HGC-27 [24] = test: Induction of apoptosis in human HGC-27 cells assessed as late apoptotic cells at 2 uM incubated for 48 hrs by annexin V FITC/propidium iodide staining based flow cytometry (reference value: 5.14 %); format: functional
HGC-27 [25] = test: Induction of apoptosis in human HGC-27 cells assessed as viable cells at 8 uM incubated for 48 hrs by annexin V FITC/propidium iodide staining based flow cytometry (reference value: 93.0 %); format: functional; conditions: read-out: Activity
HGC-27 [26] = test: Induction of apoptosis in human HGC-27 cells assessed as early apoptotic cells at 8 uM incubated for 48 hrs by annexin V FITC/propidium iodide staining based flow cytometry (reference value: 0.66 %); format: functional
MGC-803 [27] = test: Induction of apoptosis in human MGC-803 cells assessed as necrotic cells at 2.5 uM incubated for 48 hrs by annexin V FITC/propidium iodide staining based flow cytometry (reference value: 1.06 %); format: functional
HGC-27 [28] = test: Induction of cell cycle arrest in human HGC-27 cells assessed as reduction in accumulation of cells at G2/M phase at 0.5 to 8 uM incubated for 24 hrs by PI staining based flow cytometry analysis; format: functional; conditions: dose 0.5-8 µM
MGC-803 [29] = test: Induction of cell cycle arrest in human MGC-803 cells assessed as reduction in accumulation of cells at G2/M phase at 2.5 to 10 uM incubated for 24 hrs by PI staining based flow cytometry analysis; format: functional; conditions: dose 2.5-10 µM
HGC-27 [30] = test: Induction of apoptosis in human HGC-27 cells assessed as upregulation in Bax expression at 0.5 to 8 uM incubated for 48 hrs by Western blot analysis; format: functional, cell-based; conditions: dose 0.5-8 µM
HGC-27 [31] = test: Induction of apoptosis in human HGC-27 cells assessed as upregulation in cleaved caspase-9 expression at 0.5 to 8 uM incubated for 48 hrs by Western blot analysis; format: functional, cell-based; conditions: dose 0.5-8 µM
HGC-27 [32] = test: Induction of apoptosis in human HGC-27 cells assessed as upregulation in cleaved PARP expression at 0.5 to 8 uM incubated for 48 hrs by Western blot analysis; format: functional, cell-based; conditions: dose 0.5-8 µM
HGC-27 [33] = test: Induction of cell cycle arrest in human HGC-27 cells assessed as upregulation of p27 expression at 0.5 to 8 uM incubated for 48 hrs by Western blot analysis; format: functional, cell-based; conditions: dose 0.5-8 µM

Compound O=C(NCc1ccc(NC(=O)c2cc(F)ccc2N2CCCC2)cc1)OCc1cccnc1 has a pIC50 (AGS) of 4.63, a viability at 0.1 µM (HGC-27 [1]) of 83.5% and an Activity (HGC-27 [2]) of 2.63%. The Activity (HGC-27 [3]) was 21.3%, the Activity (HGC-27 [4]) was 0.31% and the Activity (HGC-27 [5]) was 16.9%. It also gave a viability at 20 µM (MGC-803 [6]) of 60.7%, an Activity (MGC-803 [7]) of 16.8% and an Activity (MGC-803 [8]) of 2.74%. The Activity (HGC-27 [9]) was “Active”, the Activity (HGC-27 [10]) was “Active” and the Activity [11] was “Non-Toxic”. For the same compound, the Activity [12] was 5.77 10^9/L and 7.2%, the Activity [13] was 1.7 10^9/L and 2.13% and the Activity [14] was 72.9 10^9/L and 90.67%. The Activity [15] was 49.83 fL, the Activity [16] was 5.03 10^9/L and 6.57% and the Activity [17] was 11.74 10^12/L. The Activity (HGC-27 [18]) was “Active”, the Activity (HGC-27 [19]) was “Active” and the IC50 at 72 h (in vitro [20]) was 90.2 µM. The IC50 at 72 h (in vitro [21]) was over 100 µM.

For O=C(NCc1ccc(NC(=O)c2ccccc2N2CCCC2)cc1)OCc1cccnc1, the Activity (HGC-27 [22]) was 0.92%, the Activity (HGC-27 [23]) was 17.4% and the Activity (HGC-27 [24]) was 55.9%. For the same compound, the viability at 8 µM (HGC-27 [25]) was 36.2%, the Activity (HGC-27 [26]) was 3.68% and the Activity (MGC-803 [27]) was 4.32%. For the same compound, the Activity (HGC-27 [28]) was “Active”, the Activity (MGC-803 [29]) was “Active” and the Activity (HGC-27 [30]) was “Active”. For the same compound, the Activity (HGC-27 [31]) was “Active”, the Activity (HGC-27 [32]) was “Active” and the Activity (HGC-27 [33]) was “Active”.
